Measured values taken from patent publication US8383853B2, “Method for preparing 2,6-diethyl-4-methylphenylacetic acid” (Bayer Cropscience AG, priority 2004, dated 2013).

Experiments:
Type in all cases: in vivo
Summer wheat = experiment: Container trials with cereal, post-emergence, without or with safener; details: crop damage, 28 days after application
Description: (§1) Seeds of monocotyledonous and dicotyledonous weed and crop plants are placed into sandy loam in wood fiber pots or in plastic pots, covered with soil and cultivated in a greenhouse, during the vegetation period also outdoors outside of the greenhouse, under good growth conditions. Two-three weeks after sowing, the test plants are treated at the one- to three-leaf stage. The test compounds, formulated as wettable powders (WP) or liquid (EC) are, in various dosages with a water application rate of […] (converted), with wetting agent (0.2 to 0.3%) added, sprayed onto the plants and the surface of the soil. Three-four weeks after the treatment of the test plants, the effect of the preparations is rated visually in comparison to untreated controls (herbicidal effect in percent (%): 100% effect=the plants have died, 0% effect=like control plants).
(§2) If it is additionally to be tested as to whether safeners can improve the plant compatibility of test substances in the case of crop plants, the following options are used for applying the safener: • seeds of the crop plants are, before sowing, dressed with the safener substance (the amount of safener stated in percent, based on the weight of the seed) • before the application of the test substances, the crop plants are sprayed with the safener at a certain application rate per hectare (usually 1 day before the application of the test substances) • the safener is applied together with the test substance as a tank mix (the amount of safener is stated in g/ha or as a ratio, based on the herbicide).
(§3) By comparing the effect of the test substances on crop plants without or with safener treatment, it is possible to assess the effect of the safener substance.

Summer barley = experiment: as above; details: crop damage
Description: as §1, §2, §3

Lolium multiflorum [1] = experiment: Herbicidal post-emergence action; details: greenhouse, 80 g of a.i./ha
Description: (§4) Seeds of monocotyledonous and dicotyledonous weed and crop plants are placed into sandy loam in wood fiber pots, covered with soil and cultivated in a greenhouse under good growth conditions. Two-three weeks after sowing, the test plants are treated at the one-leaf stage. The test compounds, formulated as wettable powders (WP), are then, in various dosages with a water application rate of 600 l/ha (converted), with 0.2% of wetting agent added, sprayed onto the green parts of the plants. After the test plants have been kept in the greenhouse under optimum growth conditions for about 3 weeks, the effect of the preparations is rated visually in comparison to untreated controls (herbicidal effect in percent (%): 100% effect=the plants have died, 0% effect=like control plants).

Veronica [2] = experiment: Herbicidal post-emergence action; details: greenhouse, 80 g of a.i./ha
Description: as §4

Setaria viridis [3] = experiment: Herbicidal post-emergence action; details: greenhouse, 80 g of a.i./ha
Description: as §4

Alopecurus [4] = experiment: Herbicidal post-emergence action; details: greenhouse, 80 g of a.i./ha
Description: as §4

Avena fatua [5] = experiment: Herbicidal post-emergence action; details: greenhouse, 80 g of a.i./ha
Description: as §4

Meloidogyne incognita = experiment: Meloidogyne test (spray treatment); details: 20 ppm of a.i., after 14 d
Description: To produce a suitable preparation of active compound, 1 part by weight of active compound is mixed with the stated amounts of solvent, and the concentrate is diluted with water to the desired concentration.
Vessels are filled with sand, solution of active compound, Meloidogyne incognita egg/larva suspension and lettuce seeds. The lettuce seeds germinate and the plants develop. On the roots, galls are formed.
After the desired period of time, the nematicidal activity is determined in % by the formation of galls. 100% means that no galls have been found; 0% means that the number of galls on the treated plants corresponds to that of the untreated control.

Lolium multiflorum [6] = experiment: Herbicidal pre-emergence action; details: greenhouse
Source text: (§5) Seeds of monocotyledonous and dicotyledonous weed and crop plants are placed in sandy loam in wood fiber pots and covered with soil. The test compounds, formulated in the form of wettable powders (WP), are then, as an aqueous suspension with a water application rate of 600 l/ha (converted), with 0.2% of wetting agent added, applied to the surface of the covering soil in various dosages.
(§6) After the treatment, the pots are placed in a greenhouse and kept under good growth conditions for the test plants. The visual assessment of the emergence damage on the test plants is carried out after a trial period of 3 weeks by comparison with untreated controls (herbicidal effect in percent (%): 100% effect=the plants have died, 0% effect=like control plants).

Veronica [7] = experiment: Herbicidal pre-emergence action; details: greenhouse, 320 g of a.i./ha
Source text: as §5, §6

Setaria viridis [8] = experiment: Herbicidal pre-emergence action; details: greenhouse
Source text: as §5, §6

Alopecurus [9] = experiment: Herbicidal pre-emergence action; details: greenhouse
Source text: as §5, §6

Avena fatua [10] = experiment: Herbicidal pre-emergence action; details: greenhouse
Source text: as §5, §6

Echinochloa crus-galli = experiment: Herbicidal post-emergence action; details: greenhouse, 80 g of a.i./ha
Description: as §4

Echinochloa = experiment: Herbicidal pre-emergence action; details: greenhouse, 80 g of a.i./ha
Source text: as §5, §6

[11] = greenhouse, post-emergence, 12.5 g of a.i./ha
[12] = greenhouse, post-emergence, 25 g of a.i./ha

| Compound | Summer wheat observed (%) (Summer wheat; 12.5 g of a.i./ha) | Summer wheat observed (%) (Summer wheat; 25 g of a.i./ha) | herbicidal effect, Lolium (Lolium multiflorum [1]) [%] | herbicidal effect, Veronica (Veronica [2]) [%] | herbicidal effect, Setaria (Setaria viridis [3]) [%] | herbicidal effect, Alopecurus (Alopecurus [4]) [%] | herbicidal effect, Avena fatua (Avena fatua [5]) [%] | herbicidal effect, Echinochloa (Echinochloa crus-galli) [%] | herbicidal effect, Lolium (Lolium multiflorum [6]; 80 g of a.i./ha) [%] | herbicidal effect, Echinochloa (Echinochloa) [%] | herbicidal effect, Setaria (Setaria viridis [8]; 80 g of a.i./ha) [%] | herbicidal effect, Alopecurus (Alopecurus [9]; 80 g of a.i./ha) [%] | Summer barley observed (%) (Summer barley; [11]) | Summer barley observed (%) (Summer barley; [12]) | further results |
| --- | --- | --- | --- | --- | --- | --- | --- | --- | --- | --- | --- | --- | --- | --- | --- |
| CCOC1CCC2(CC1)NC(=O)C(c1c(CC)cc(C)cc1CC)=C2O (single isomer, unassigned) [I-a-2] | 40 | 80 | – | – | – | – | – | – | – | – | – | – | – | – | Summer barley observed (%) (Summer barley; 28 days after application, 25 g of a.i./ha): 25%; Summer barley observed (%) (Summer barley; 28 days after application, 50 g of a.i./ha): 50% |
| CCOCC(=O)OC1=C(c2c(CC)cc(C)cc2CC)C(=O)NC12CCC(OC)CC2 (single isomer, unassigned) [I-b-2] | 95 | – | 100 | 70 | 100 | 100 | 100 | – | – | – | – | – | – | – | nematicidal activity in % by the formation of galls (Meloidogyne incognita): ≥ 70%; herbicidal effect, Lolium (Lolium multiflorum [6]; 320 g of a.i./ha): 100%; herbicidal effect, Veronica (Veronica [7]): 100%; herbicidal effect, Setaria (Setaria viridis [8]; 320 g of a.i./ha): 100%; herbicidal effect, Alopecurus (Alopecurus [9]; 320 g of a.i./ha): 100%; herbicidal effect, Avena fatua (Avena fatua [10]; 320 g of a.i./ha): 90% |
| CCOC(=O)OC1=C(c2c(CC)cc(C)cc2CC)C(=O)NC12CCC(OC)CC2 (single isomer, unassigned) [I-c-2] | – | – | 100 | 80 | 100 | 100 | – | 100 | 100 | 100 | 90 | 90 | – | – | – |
| CCc1cc(C)cc(CC)c1C1=C(O)C2(CCC(OC)CC2)NC1=O (stereo not shown) [I-a-1] | – | – | – | – | – | – | – | – | – | – | – | – | 20 | 60 | Summer barley observed (%) (Summer barley; greenhouse, post-emergence, 50 g of a.i./ha): 93% |
| CCc1cc(C)cc(CC)c1C1=C(OC(=O)COC)C2(CCC(OC)CC2)NC1=O (stereo not shown) [I-b-1] | – | 90 | 100 | 80 | 100 | 100 | 100 | – | – | – | – | – | – | – | – |
| C=CCOC(=O)OC1=C(c2c(CC)cc(C)cc2CC)C(=O)NC12CCC(OC)CC2 (stereo not shown) [I-c-1] | – | – | 100 | – | 100 | 100 | 90 | 100 | 100 | 100 | 100 | 100 | 35 | 60 | herbicidal effect, Avena fatua (Avena fatua [10]; 80 g of a.i./ha): 60% |
